This note sets out measurements from patent US20200239530A1, “COMPOUNDS AND METHODS OF MODULATING PROTEIN DEGRADATION” (Vividion Therapeutics, Inc., priority 2017, published 2020).

Common to all, as to test: Cysteine liganding, probe competition
Holding throughout (format): binding

One test deals with T1, UniProt Q13829 (Homo sapiens, UniProt Q13829).
T1 construct: 200 μL of lysate containing 5 mg/ml proteome was treated with 2 μL of 100× compound stock; endogenous in cells
T1 sequence (Q13829 1-316): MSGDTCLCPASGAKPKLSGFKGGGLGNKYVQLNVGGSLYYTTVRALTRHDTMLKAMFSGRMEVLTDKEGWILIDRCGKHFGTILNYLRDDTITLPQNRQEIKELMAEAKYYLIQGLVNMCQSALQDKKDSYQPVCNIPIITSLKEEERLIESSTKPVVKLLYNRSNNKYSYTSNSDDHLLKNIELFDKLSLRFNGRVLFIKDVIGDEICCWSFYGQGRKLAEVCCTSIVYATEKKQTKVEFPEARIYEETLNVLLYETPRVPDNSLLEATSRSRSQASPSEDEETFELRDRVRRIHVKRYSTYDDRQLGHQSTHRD
An excerpt:
(§1) The following 96-well sample prep protocol was used for sample preparation.

The target of a further test is T2, UniProt O43255 (Homo sapiens, UniProt O43255).
T2 construct: 200 μL of lysate containing 5 mg/ml proteome was treated with 2 μL of 100× compound stock; endogenous in cells
T2 sequence (O43255 1-324): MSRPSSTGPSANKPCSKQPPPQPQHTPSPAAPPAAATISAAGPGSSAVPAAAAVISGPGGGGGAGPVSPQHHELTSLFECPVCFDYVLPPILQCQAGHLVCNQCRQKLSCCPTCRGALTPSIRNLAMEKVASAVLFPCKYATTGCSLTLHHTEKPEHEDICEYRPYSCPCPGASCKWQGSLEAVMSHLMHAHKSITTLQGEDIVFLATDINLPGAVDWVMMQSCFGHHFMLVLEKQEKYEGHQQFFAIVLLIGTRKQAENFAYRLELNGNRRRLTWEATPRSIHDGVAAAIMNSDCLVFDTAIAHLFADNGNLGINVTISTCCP
From the text: as §1

For the next test, the target named is T3, UniProt Q969V5 (Homo sapiens, UniProt Q969V5).
T3 construct: Cells were resuspended in cold PBS on ice and sonicated with a probe sonicator to achieve lysis; endogenous in cells
T3 sequence (Q969V5 1-352): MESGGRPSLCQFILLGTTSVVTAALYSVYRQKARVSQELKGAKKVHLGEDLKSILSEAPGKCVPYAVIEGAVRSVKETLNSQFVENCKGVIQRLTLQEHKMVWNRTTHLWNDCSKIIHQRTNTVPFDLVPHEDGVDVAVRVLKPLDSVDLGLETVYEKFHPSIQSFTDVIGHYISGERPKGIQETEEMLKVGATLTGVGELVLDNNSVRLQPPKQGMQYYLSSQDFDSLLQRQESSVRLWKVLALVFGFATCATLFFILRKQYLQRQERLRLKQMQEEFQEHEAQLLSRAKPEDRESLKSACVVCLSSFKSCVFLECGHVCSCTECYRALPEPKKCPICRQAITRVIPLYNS
The note with it: for percent inhibition: 100 uM.
From the text: as §1

A further test addresses T4, UniProt Q86UD3 (Homo sapiens, UniProt Q86UD3).
T4 construct: Cells were resuspended in cold PBS on ice and sonicated with a probe sonicator to achieve lysis; endogenous in cells
T4 sequence (Q86UD3 1-253): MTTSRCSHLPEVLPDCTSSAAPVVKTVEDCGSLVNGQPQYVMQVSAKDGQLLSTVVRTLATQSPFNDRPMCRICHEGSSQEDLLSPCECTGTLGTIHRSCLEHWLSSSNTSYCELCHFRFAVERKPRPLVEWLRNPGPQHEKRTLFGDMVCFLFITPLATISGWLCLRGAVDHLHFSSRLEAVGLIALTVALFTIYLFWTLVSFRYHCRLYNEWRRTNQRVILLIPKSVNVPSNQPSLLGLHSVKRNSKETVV
From the text: as §1

The next test concerns the target T5, UniProt Q96EH8 (Homo sapiens, UniProt Q96EH8).
T5 construct: Cells were resuspended in cold PBS on ice and sonicated with a probe sonicator to achieve lysis; endogenous in cells
T5 sequence (Q96EH8 1-262): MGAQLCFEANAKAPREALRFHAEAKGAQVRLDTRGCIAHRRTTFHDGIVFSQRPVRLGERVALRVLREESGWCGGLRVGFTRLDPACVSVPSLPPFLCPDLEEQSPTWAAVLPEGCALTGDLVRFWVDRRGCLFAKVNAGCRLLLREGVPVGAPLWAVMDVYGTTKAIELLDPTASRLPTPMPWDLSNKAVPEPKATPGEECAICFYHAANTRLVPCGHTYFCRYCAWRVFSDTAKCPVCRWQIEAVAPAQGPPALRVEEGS
Conditions: for inhibition at 500 µM: read-out: percent inhibition.
From the text: as §1

The next test deals with T6, UniProt Q9H0F5 (Homo sapiens, UniProt Q9H0F5).
T6 construct: 200 μL of lysate containing 5 mg/ml proteome was treated with 2 μL of 100× compound stock; endogenous in cells
Conditions: for percent_inhibition / inhibition at 500 µM: 500 uM.
From the text: as §1

For the next test, the target named is T7, UniProt Q12899 (Homo sapiens, UniProt Q12899).
T7 construct: 200 μL of lysate containing 5 mg/ml proteome was treated with 2 μL of 100× compound stock; endogenous in cells
From the text: as §1

A further test addresses T8, UniProt Q86SE9 (Homo sapiens, UniProt Q86SE9).
T8 construct: 200 μL of lysate containing 5 mg/ml proteome was treated with 2 μL of 100× compound stock; endogenous in cells
From the text: as §1

A further test has as its target T9, UniProt P49792 (Homo sapiens, UniProt P49792).
T9 construct: 200 μL of lysate containing 5 mg/ml proteome was treated with 2 μL of 100× compound stock; endogenous in cells
Conditions: 500 uM.
From the text: as §1

In a further test the target is T10, UniProt P78317 (Homo sapiens, UniProt P78317).
T10 construct: 200 μL of lysate containing 5 mg/ml proteome was treated with 2 μL of 100× compound stock; endogenous in cells
From the text: as §1

The next test has as its target T11, UniProt Q8WV22 (Homo sapiens, UniProt Q8WV22).
T11 construct: Cells were resuspended in cold PBS on ice and sonicated with a probe sonicator to achieve lysis; endogenous in cells
T11 sequence (Q8WV22 1-266): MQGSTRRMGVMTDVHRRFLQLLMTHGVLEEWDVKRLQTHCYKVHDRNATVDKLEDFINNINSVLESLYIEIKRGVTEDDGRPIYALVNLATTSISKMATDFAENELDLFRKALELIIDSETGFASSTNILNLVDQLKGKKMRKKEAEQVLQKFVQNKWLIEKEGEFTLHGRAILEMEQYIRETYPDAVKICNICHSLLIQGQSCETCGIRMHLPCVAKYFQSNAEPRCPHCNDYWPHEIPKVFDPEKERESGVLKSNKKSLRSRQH
From the text: as §1

Where [1] appears, read: 100 uM, read-out: percent_inhibition.
Setting [2] is: 500 uM, read-out: percent_inhibition.
[3] abbreviates: 100 uM, read-out: KB05_100 uM_percent_inhibition.
Where [4] appears, read: 500 uM, read-out: KB05_500 uM_percent_inhibition.

T8 sequence (Q86SE9 whole entry, change not shown): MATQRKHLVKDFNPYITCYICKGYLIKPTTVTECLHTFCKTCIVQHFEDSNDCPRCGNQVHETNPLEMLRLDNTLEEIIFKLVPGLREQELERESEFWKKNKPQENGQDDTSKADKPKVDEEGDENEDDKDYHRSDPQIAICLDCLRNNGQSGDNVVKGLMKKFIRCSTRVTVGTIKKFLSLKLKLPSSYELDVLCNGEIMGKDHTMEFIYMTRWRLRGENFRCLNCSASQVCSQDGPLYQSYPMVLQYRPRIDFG
T6 sequence (Q9H0F5 whole entry, change not shown): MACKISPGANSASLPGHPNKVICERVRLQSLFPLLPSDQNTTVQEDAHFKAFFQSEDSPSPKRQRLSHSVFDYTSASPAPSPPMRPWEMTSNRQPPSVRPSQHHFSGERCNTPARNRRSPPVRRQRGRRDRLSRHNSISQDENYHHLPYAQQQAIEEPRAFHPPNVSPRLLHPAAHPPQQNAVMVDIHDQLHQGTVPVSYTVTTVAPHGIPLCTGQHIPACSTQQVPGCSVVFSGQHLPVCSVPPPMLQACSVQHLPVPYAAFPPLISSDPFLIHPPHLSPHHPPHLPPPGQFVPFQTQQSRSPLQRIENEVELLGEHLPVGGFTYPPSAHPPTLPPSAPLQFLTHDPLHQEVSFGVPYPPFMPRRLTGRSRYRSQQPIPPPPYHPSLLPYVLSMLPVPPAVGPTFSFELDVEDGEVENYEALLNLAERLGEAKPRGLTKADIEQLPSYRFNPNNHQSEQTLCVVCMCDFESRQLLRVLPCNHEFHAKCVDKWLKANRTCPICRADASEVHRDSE
T10 sequence (P78317 whole entry, change not shown): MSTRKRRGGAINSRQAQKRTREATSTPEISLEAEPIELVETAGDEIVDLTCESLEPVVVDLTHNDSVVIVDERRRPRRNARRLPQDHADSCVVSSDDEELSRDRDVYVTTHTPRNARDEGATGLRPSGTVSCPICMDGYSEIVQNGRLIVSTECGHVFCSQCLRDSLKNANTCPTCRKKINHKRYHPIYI
T7 sequence (Q12899 whole entry, change not shown): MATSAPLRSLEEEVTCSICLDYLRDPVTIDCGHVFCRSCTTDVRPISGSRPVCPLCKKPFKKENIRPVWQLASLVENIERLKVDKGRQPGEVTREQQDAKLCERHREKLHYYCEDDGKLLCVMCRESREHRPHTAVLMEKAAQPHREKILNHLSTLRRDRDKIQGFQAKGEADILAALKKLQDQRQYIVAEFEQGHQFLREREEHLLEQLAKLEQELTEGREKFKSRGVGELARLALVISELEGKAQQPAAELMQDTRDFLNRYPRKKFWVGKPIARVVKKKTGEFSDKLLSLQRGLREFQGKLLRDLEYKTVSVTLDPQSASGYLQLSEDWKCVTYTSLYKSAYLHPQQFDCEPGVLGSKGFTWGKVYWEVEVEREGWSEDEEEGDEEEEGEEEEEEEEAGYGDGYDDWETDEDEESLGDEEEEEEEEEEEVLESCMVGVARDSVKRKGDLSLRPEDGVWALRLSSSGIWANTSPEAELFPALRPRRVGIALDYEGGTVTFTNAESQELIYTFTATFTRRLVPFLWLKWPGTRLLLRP
T9 sequence (P49792 whole entry, change not shown): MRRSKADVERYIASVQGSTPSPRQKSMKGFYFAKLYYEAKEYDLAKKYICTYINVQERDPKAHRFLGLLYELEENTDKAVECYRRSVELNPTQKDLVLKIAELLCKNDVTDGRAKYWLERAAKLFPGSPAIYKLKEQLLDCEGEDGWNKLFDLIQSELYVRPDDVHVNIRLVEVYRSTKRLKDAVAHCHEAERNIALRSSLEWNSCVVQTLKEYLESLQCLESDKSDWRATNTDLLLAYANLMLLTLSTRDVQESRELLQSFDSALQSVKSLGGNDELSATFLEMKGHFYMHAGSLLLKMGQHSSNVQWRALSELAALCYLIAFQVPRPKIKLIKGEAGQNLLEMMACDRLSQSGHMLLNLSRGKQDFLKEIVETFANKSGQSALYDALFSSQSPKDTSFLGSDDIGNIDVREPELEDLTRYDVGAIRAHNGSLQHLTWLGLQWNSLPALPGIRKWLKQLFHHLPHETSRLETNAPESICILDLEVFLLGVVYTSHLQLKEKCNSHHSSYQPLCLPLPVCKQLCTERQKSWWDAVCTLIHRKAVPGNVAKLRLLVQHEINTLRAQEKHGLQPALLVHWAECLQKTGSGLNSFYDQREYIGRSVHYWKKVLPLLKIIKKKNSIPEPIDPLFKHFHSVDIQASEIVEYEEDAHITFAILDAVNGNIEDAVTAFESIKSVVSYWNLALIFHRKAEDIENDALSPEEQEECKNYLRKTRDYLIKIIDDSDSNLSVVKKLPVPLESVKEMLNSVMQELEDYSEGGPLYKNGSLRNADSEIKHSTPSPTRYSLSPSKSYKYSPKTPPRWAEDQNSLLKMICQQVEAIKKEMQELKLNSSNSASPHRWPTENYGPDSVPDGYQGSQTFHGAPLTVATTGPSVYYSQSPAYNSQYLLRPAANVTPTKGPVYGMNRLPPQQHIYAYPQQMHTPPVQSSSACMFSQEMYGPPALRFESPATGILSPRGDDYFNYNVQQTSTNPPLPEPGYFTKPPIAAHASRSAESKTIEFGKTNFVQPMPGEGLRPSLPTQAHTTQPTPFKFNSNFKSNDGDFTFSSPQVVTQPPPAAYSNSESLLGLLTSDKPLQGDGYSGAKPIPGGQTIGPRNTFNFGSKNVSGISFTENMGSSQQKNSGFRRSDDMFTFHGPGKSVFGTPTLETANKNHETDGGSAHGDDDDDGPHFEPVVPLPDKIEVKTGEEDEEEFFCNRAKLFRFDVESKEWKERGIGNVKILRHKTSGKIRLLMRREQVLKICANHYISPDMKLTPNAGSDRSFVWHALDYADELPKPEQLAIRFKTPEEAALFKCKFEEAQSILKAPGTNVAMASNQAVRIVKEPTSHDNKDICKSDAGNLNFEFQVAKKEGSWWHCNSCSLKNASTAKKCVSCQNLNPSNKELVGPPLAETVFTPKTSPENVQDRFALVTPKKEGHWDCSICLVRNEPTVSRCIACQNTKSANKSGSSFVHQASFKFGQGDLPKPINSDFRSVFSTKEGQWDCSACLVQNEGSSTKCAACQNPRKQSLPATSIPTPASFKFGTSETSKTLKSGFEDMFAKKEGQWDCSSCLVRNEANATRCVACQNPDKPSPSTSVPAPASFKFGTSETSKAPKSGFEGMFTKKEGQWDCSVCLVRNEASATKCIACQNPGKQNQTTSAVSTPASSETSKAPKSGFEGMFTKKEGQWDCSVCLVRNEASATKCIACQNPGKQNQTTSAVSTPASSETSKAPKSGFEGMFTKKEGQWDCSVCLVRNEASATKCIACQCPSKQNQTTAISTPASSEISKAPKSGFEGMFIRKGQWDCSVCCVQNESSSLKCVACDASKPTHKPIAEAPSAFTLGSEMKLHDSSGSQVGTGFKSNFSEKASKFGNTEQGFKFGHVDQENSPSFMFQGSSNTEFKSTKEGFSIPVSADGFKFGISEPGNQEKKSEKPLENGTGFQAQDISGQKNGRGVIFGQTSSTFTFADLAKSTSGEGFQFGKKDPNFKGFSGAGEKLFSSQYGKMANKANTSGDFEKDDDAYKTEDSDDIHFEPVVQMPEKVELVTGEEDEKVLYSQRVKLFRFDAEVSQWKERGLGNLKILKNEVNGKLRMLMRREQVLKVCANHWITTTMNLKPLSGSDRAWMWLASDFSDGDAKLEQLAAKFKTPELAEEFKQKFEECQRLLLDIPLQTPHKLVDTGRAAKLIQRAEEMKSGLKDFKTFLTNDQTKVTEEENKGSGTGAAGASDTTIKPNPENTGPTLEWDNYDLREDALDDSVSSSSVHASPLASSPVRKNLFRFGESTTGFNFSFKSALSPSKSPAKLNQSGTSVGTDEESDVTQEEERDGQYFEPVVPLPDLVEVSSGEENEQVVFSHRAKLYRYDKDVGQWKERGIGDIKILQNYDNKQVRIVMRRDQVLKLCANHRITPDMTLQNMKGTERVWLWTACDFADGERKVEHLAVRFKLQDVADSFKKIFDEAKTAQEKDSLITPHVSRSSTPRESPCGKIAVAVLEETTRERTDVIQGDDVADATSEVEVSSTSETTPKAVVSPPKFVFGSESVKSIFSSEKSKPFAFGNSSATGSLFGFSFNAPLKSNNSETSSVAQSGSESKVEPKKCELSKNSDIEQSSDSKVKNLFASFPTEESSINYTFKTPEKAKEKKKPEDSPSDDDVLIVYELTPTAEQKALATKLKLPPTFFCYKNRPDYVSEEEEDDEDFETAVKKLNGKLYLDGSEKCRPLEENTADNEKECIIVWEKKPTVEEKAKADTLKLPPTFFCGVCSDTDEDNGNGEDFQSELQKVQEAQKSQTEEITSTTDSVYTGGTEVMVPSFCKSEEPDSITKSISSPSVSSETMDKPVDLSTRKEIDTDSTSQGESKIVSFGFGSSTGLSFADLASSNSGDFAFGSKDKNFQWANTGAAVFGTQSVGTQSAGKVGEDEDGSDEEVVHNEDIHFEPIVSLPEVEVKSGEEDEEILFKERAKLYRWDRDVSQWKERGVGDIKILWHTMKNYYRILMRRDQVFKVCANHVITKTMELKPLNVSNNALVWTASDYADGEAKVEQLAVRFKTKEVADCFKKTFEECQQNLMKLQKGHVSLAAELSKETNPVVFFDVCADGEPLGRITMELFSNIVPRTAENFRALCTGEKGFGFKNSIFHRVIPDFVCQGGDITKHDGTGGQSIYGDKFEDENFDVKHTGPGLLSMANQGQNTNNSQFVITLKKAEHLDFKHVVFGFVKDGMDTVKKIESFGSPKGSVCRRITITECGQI

`COc1ccc2c(c1)CCCN2C(=O)CCl` [KB02]: the percent_inhibition is 4% at UniProt Q13829 (100 uM), 9% at UniProt Q13829 (500 uM), 20% at UniProt O43255 (100 uM) and 42% at UniProt Q9H0F5. The inhibition at 100 µM was 8% at UniProt Q13829 (setting [1]); 31% on UniProt O43255 (setting [1]); 25% on UniProt Q969V5 (read-out: percent inhibition); 34% at UniProt Q86UD3 (100 uM, read-out: percent inhibition); 44% at UniProt Q9H0F5 (setting [1]). The inhibition at 500 µM came out at 15% at UniProt Q13829 (setting [2]); 77% at UniProt Q86UD3 (500 uM, read-out: percent inhibition); 40% on UniProt Q96EH8; 24% on UniProt Q9H0F5 (read-out: percent_inhibition). The values for the percent inhibition at UniProt Q969V5 and on UniProt Q96EH8 (500 uM) were 35% and 54%, respectively.

For the molecule `C=CC(=O)N(c1ccccc1)c1ccc(Br)cc1` [KB05], the inhibition at 100 µM came to 7% at UniProt Q13829 (setting [1]), 28% on UniProt Q12899 (read-out: KB05_100 uM_percent_inhibition), 9% on UniProt Q86SE9 (setting [3]) and 13% on UniProt Q8WV22 (setting [3]). In addition, the inhibition at 500 µM is 28% at UniProt O43255 (setting [2]); 53% at UniProt Q86SE9 (setting [4]); 44% on UniProt Q96EH8; 24% on UniProt P78317 (setting [2]); 64% at UniProt Q8WV22 (setting [4]); 16% on UniProt Q9H0F5 (read-out: percent_inhibition). Also, the “KB05_500 uM_percent_inhibition” value at UniProt Q86SE9 (500 uM) amounted to 58%; on UniProt P49792, 75%; on UniProt Q8WV22 (500 uM), 66%. In addition, the percent_inhibition at UniProt Q9H0F5 came out at 10%.

In the case of `O=C(CCl)Nc1cc(C(F)(F)F)cc(C(F)(F)F)c1` [KBO3], the figures for the “KB03_100 uM_percent_inhibition” value on UniProt Q12899 (100 uM), on UniProt Q86SE9 (100 uM) and on UniProt Q8WV22 (100 uM) were 56%, 25% and 2%, respectively. The percent inhibition amounted to 38% on UniProt Q969V5 and 66% on UniProt Q86UD3 (500 uM). At UniProt P49792, the “KB03_500 uM_percent_inhibition” value worked out at 79%. This molecule returned a percent_inhibition on UniProt P78317 (100 uM) of 16%.
